Assay results taken from patent US10766865B2, “PKM2 modulators and methods for their use” (TOLERO PHARMACEUTICALS, INC., priority 2012, dated 2020).
Where two headings read alike, the source gives them in different places.

Molecular target: PKM2 (Homo sapiens, UniProt P14618)
Assay: PKM2 Biochemical Assay
Settings: for Max. Resp.: % maximum response in a biochemical assay as compared with Fructose 1,6-bisphosphate
[1] = read-out: PKM2 AC50, 2 nM PKM2, 75 μM ADP, 15 μM PEP, Kinase Glo

PKM2, sequence (P14618 whole entry): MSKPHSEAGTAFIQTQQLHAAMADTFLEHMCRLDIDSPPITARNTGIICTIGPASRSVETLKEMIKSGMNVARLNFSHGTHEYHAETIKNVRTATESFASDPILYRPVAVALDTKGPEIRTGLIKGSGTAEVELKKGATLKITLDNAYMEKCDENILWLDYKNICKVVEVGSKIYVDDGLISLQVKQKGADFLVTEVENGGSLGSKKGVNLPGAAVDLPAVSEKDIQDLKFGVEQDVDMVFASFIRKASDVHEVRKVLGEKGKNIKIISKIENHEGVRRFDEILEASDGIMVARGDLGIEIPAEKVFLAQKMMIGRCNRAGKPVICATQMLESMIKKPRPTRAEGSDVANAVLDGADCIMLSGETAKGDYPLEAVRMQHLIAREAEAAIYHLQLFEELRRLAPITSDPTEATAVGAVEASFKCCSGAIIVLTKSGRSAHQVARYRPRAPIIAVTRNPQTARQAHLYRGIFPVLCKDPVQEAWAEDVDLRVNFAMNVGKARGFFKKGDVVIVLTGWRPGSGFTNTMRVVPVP

| Structure (SMILES) | Max. Resp. [%] | AC50 [nM] | AC50 [1] [nM] |
| --- | --- | --- | --- |
| N#Cc1cc(C(=O)N(Cc2ccc(O)cc2F)CC2CCC2)[nH]n1 [Example 2, 3-CYANO-N-(CYCLOBUTYLMETHYL)-N-(2-FLUORO-4-HYDROXYBENZYL)-1H-PYRAZOLE-5-CARBOXAMIDE] | 39 |  |  |
| Nc1cc(C(=O)N(Cc2ccc(O)cc2F)CC2CCC2)[nH]n1 [Example 3, 3-amino-N-(cyclobutylmethyl)-N-(2-fluoro-4-hydroxybenzyl)-1H-pyrazole-5-carboxamide] | 45 |  |  |
| CC(c1ccccc1)N(CC1CCC1)C(=O)c1cc(Br)n[nH]1 (stereo not shown) [Example 4, 3-bromo-N-(cyclobutylmethyl)-N-(1-phenylethyl)-1H-pyrazole-5-carboxamide] | 52 | 1480 |  |
| CC(c1ccccc1)N(CC1CCC1)C(=O)c1cc(C(F)(F)F)n[nH]1 (stereo not shown) [Example 5, 3-trifluoromethyl-N-(cyclobutylmethyl)-N-(1-phenylethyl)-1H-pyrazole-5-carboxamide] | 106 |  |  |
| O=C(c1cc(C(F)(F)F)n[nH]1)N(Cc1cccc2[nH]ccc12)CC1CCC1 [Example 6, N-((1H-indol-4-yl)methyl)-N-(cyclobutylmethyl)-3-(trifluoromethyl)-1H-pyrazole-5-carboxamide] | 100 |  | 213 |
| O=C(c1cc(Cl)n[nH]1)N(Cc1cccc2[nH]c(=O)sc12)CC1CCC1 [Example 9, 3-Chloro-N-(cyclobutylmethyl)-N-((2-oxo-2,3-dihydrobenzo[d]thiazol-7-yl)methyl)-1H-pyrazole-5-carboxamide] | 80 |  |  |
| O=C(c1cc(Br)n[nH]1)N(Cc1cccc2[nH]c(=O)sc12)CC1CCC1 [Example 10, 3-bromo-N-(cyclobutylmethyl)-N-((2-oxo-2,3-dihydrobenzo[d]thiazol-7-yl)methyl)-1H-pyrazole-5-carboxamide] | 127 |  |  |
| O=C(c1cc(Br)n[nH]1)N(Cc1ccc(O)cc1F)CC1CNC1 [Example 11, N-(azetidin-3-ylmethyl)-3-bromo-N-(2-fluoro-4-hydroxybenzyl)-1H-pyrazole-5-carboxamide] | 61 |  |  |
| O=C(c1cc(C(F)(F)F)n[nH]1)N(Cc1cccc2[nH]ccc12)CC1COC1 [Example 12] | 101 |  |  |
| CC(C)(C)CN(Cc1cccc2[nH]ccc12)C(=O)c1cc(C(F)(F)F)n[nH]1 [Example 13] | 33 |  |  |
| O=C(c1cc(C(F)(F)F)n[nH]1)N(Cc1cccc2c1CCN2)CC1CCC1 [Example 14, N-(cyclobutylmethyl)-N-(indolin-4-ylmethyl)-3-(trifluoromethyl)-1H-pyrazole-5-carboxamide] | 81 |  | 1700 |
| O=C(c1cc(C(F)(F)F)n[nH]1)N(Cc1ccc(O)cc1F)CC1COC1 [Example 15] | 102 |  |  |
| CCCC(C)N(Cc1ccccc1)C(=O)c1cc(C(F)(F)F)n[nH]1 (stereo not shown) [Example 16] | 22 |  |  |
| CCCCCN(Cc1ccccc1)C(=O)c1cc(C(F)(F)F)n[nH]1 [Example 19] | 76 |  |  |
| O=C(c1cc(C(F)(F)F)n[nH]1)N(Cc1ccccc1F)CC1COC1 [Example 20] | 70 |  |  |
| COCCCN(Cc1ccccc1F)C(=O)c1cc(C(F)(F)F)n[nH]1 [Example 23] | 75 |  |  |
| CCOCCN(Cc1ccc(O)cc1F)C(=O)c1cc(C(F)(F)F)n[nH]1 [Example 24] | 100 |  |  |
| O=C(c1cc(C(F)(F)F)n[nH]1)N(Cc1ccccc1F)c1ncco1 [Example 25] | 35 |  |  |
| O=C(c1cc(C(F)(F)F)n[nH]1)N(CCC1CCOC1)Cc1ccccc1F (stereo not shown) [Example 26] | 99 |  |  |
| O=C(c1cc(C(F)(F)F)n[nH]1)N(Cc1ccccc1Cl)CC1COC1 [Example 27] | 47 |  |  |
| COCCCN(Cc1ccccc1Cl)C(=O)c1cc(C(F)(F)F)n[nH]1 [Example 29] | 87 | 4640 |  |
| COCCCN(Cc1ccccc1F)C(=O)c1cc(C(F)(F)F)n[nH]1 [Example 30] | 72 | 9770 |  |
| COCCCN(Cc1ccccc1Cl)C(=O)c1cc(C(F)(F)F)n[nH]1 [Example 31] | 82 |  |  |
| O=C(c1cc(C(F)(F)F)n[nH]1)N(CCC1CCOCC1)Cc1ccccc1Cl [Example 32] | 107 |  |  |

| Structure (SMILES) | Max. Resp. [%] | AC50 [nM] | AC50 [1] [nM] |
| --- | --- | --- | --- |
| O=C(c1cc(C(F)(F)F)n[nH]1)N(CCC1CCOC1)Cc1c(Cl)cccc1Cl (stereo not shown) [Example 33] | 81 |  |  |
| O=C(c1cc(C(F)(F)F)n[nH]1)N(CCC1CCOC1)Cc1ccc(O)cc1F (stereo not shown) [Example 34] | 109 |  |  |
| O=C(c1cc(C(F)(F)F)n[nH]1)N(Cc1ccccc1Cl)C1CCOCC1 [Example 35] | 59 |  |  |
| O=C(c1cc(C(F)(F)F)n[nH]1)N(CCC1CCCOC1)Cc1ccccc1Cl (stereo not shown) [Example 36] | 88 |  |  |
| CC(C)OCCN(Cc1ccccc1Cl)C(=O)c1cc(C(F)(F)F)n[nH]1 [Example 37] | 37 |  |  |
| CCOCCCN(Cc1ccccc1Cl)C(=O)c1cc(C(F)(F)F)n[nH]1 [Example 38] | 47 |  |  |
| O=C(c1cc(C(F)(F)F)n[nH]1)N(CCOC1CCCC1)Cc1ccccc1F [Example 39] | 30 |  |  |
| O=C(c1cc(C(F)(F)F)n[nH]1)N(CCC1CCOC1)Cc1c(F)cccc1F (stereo not shown) [Example 40] | 114 |  |  |
| O=C(c1cc(C(F)(F)F)n[nH]1)N(CCC1CCOCC1)Cc1ccccc1F [Example 41] | 118 |  |  |
| CCOCCN(Cc1c(Cl)cccc1Cl)C(=O)c1cc(C(F)(F)F)n[nH]1 [Example 42] | 76 |  |  |
| O=C(c1cc(C(F)(F)F)n[nH]1)N(CCC1CCOC1)Cc1ccccc1Cl (stereo not shown) [Example 43] | 110 |  |  |
| O=C(c1cc(C(F)(F)F)n[nH]1)N(CCC1CCCCO1)Cc1ccccc1Cl (stereo not shown) [Example 44] | 32 |  |  |
| O=C(c1cc(C(F)(F)F)n[nH]1)N(Cc1ccccc1F)CC1CCOCC1 [Example 45] | 52 |  |  |
| O=C(c1cc(C(F)(F)F)n[nH]1)N(CCC1CCCO1)Cc1ccccc1F (stereo not shown) [Example 46] | 70 |  |  |
| CO[C@H]1CC[C@H](N(Cc2cccc(F)c2)C(=O)c2cc(C(F)(F)F)n[nH]2)CC1 [Example 48] | 80 |  |  |
| CO[C@H]1CC[C@H](N(Cc2c(F)cccc2F)C(=O)c2cc(C(F)(F)F)n[nH]2)CC1 [Example 49] | 122 |  |  |
| CO[C@H]1CC[C@H](N(Cc2cc(F)ccc2F)C(=O)c2cc(C(F)(F)F)n[nH]2)CC1 [Example 50] | 90 |  |  |
| CO[C@H]1CC[C@H](N(Cc2cc(F)cc(F)c2)C(=O)c2cc(C(F)(F)F)n[nH]2)CC1 [Example 51] | 31 |  |  |
| CO[C@H]1CC[C@H](N(Cc2ccccc2Cl)C(=O)c2cc(C(F)(F)F)n[nH]2)CC1 [Example 52] | 100 |  |  |
| CC(C)O[C@H]1CC[C@H](N(Cc2ccccc2Cl)C(=O)c2cc(C(F)(F)F)n[nH]2)CC1 [Example 53] | 63 |  |  |
| CCO[C@H]1CC[C@H](N(Cc2ccccc2F)C(=O)c2cc(C(F)(F)F)n[nH]2)CC1 [Example 55] | 101 |  |  |
| CO[C@H]1CC[C@H](N(Cc2ncccc2Cl)C(=O)c2cc(C(F)(F)F)n[nH]2)CC1 [Example 56] | 48 |  |  |
| O=C(c1cc(C(F)(F)F)n[nH]1)N(CCC1CCC2(CC1)OCCO2)Cc1ccccc1F [Example 59, N-(2-(1,4-dioxaspiro[4.5]decan-8-yl)ethyl)-N-(2-fluorobenzyl)-3-(trifluoromethyl)-1H-pyrazole-5-carboxamide] | 100 |  |  |
